Earlier results in US20090197815A1, “COMBINATION OF SOMATOSTATIN-ANALOGS WITH DOPAMINE- OR GROWTH HORMONE RECEPTOR ANTAGONIST” (priority 2006, published 2009).
Read-outs that look alike come from different tables or passages of the source.

Columns and labels:
patients with acromegaly [1] = test system: patients with acromegaly
acromegalic patients [2] = conditions: cabergoline 1-3.5 mg/week added to depot SSA at maximum registered dose, 19 patients
patients with acromegaly [3] = conditions: daily subcutaneous monotherapy
acromegalic patients [4] = test system: acromegalic patients

C[C@@H](O)[C@@H]1NC(=O)[C@H](CCCCN)NC(=O)[C@@H](Cc2c[nH]c3ccccc23)NC(=O)[C@H](Cc2ccccc2)NC(=O)[C@@H](NC(=O)[C@H](N)Cc2ccccc2)CSSC[C@@H](C(=O)N[C@H](CO)[C@@H](C)O)NC1=O [Sandostatin®, octreotide acetate]
normalization of IGF-I (patients with acromegaly [1]): approximately 60 % of cases
patients with GH levels decreasing to <2.0 μg/L (patients with acromegaly [1]): 40 % of patients
patients with GH levels decreasing to <5.0 μg/L (patients with acromegaly [1]): 65 % of patients

C=CCN1C[C@H](C(=O)N(CCCN(C)C)C(=O)NCC)C[C@@H]2c3cccc4[nH]cc(c34)C[C@H]21 [cabergoline]
normalization of IGF1 (acromegalic patients [2]): 42 % patients
normalized both biochemical markers (GH<2.5 μg/L and IGF1 for age) (acromegalic patients [2]): 16 % of patients
reduction of GH<2.5 μg/L (acromegalic patients [2]): 21 % of patients

pegvisomant
change of GH concentrations during therapy (patients with acromegaly [3]): increased by nearly twofold
normalization of circulating IGF-I levels (patients with acromegaly [3]): 80 to 90 % of patients
tolerability (patients with acromegaly [3]): good tolerability
IGF-I concentration normal (acromegalic patients [4]; after 18 weeks, at least 50 mg pegvisomant per week, with monthly 30 mg Sandostatin LAR or 120 mg lanreotide Autogel): 81 % of patients
IGF-I concentration normal (acromegalic patients [4]; at week 42, weekly pegvisomant with monthly 30 mg Sandostatin LAR or 120 mg lanreotide Autogel): 95 % of patients
median weekly dose needed to return IGF-I concentration to normal (acromegalic patients [4]; combined with monthly long-acting SSA, range 40-80 mg): 60 mg
patients with mild non-progressive increases in liver transaminases (acromegalic patients [4]; from week 12, independent from pegvisomant dose, 10 patients, combined with long-acting SSA): 38%
